Experimental data: publication PMC9038752, “Molecular mechanisms of bifunctional vitamin D receptor agonist-histone deacetylase inhibitor hybrid molecules in triple-negative breast cancer” (Scientific Reports, 2022)
Converted amounts (≈) assume the structure as drawn. Values belong to the compound of their own block, whether it stands above or below them.

Assays:
4TO7 cells = assay: RNAseq gene expression profiling in 4TO7 cells; type: cell-based, mouse; settings: relative to control
Description: Cells were treated for 6 h to focus more on genes directly regulated by the VDR, or for 24 or 48 h to gain insight into longer-term effects on gene expression.
McGill Genome Centre performed a quality control before sequencing in paired-end at 50 M reads by Illumina NovaSeq 6000 S4 PE100. Sets of genes regulated in the different conditions were sent to us and downstream analysis were performed.
Table S1 and Table S2 : See Excel files with RNAseq results and analysis
48 hours prior to RNA extraction. Samples were prepared in triplicate and run on Illumina NovaSeq 6000 S4
PE100. For assessing differential gene expression for RNAseq data, the LIMMA package inR was used.
RNAseq results and statistical analyses from D, S, S+D, DK-406, and AM-193 conditions measured relative to
AM-193 for 6 or 24 hours prior to RNA extraction . Samples were prepared in triplicate and run on Illumina
NovaSeq 6000 S4 PE100. For assessing differential gene expression for RNAseq data, the LIMMA package in R was […]

[1] = test system: 4T1 mouse model of triple negative breast cancer; parameters: method as in PMID 28847749; settings: aggressive 4T1 mouse model of TNBC; cited from earlier work
purified HDAC6 = molecular target: T1, purified HDAC6 (Homo sapiens, UniProt Q9UBN7); assay: Fluorogenic HDAC inhibition assay, HDAC6; type: biochemical; settings: purified HDAC6, fluorometric substrate
T1 construct: purchased Cayman Chemical
T1 sequence (Q9UBN7 1-1215): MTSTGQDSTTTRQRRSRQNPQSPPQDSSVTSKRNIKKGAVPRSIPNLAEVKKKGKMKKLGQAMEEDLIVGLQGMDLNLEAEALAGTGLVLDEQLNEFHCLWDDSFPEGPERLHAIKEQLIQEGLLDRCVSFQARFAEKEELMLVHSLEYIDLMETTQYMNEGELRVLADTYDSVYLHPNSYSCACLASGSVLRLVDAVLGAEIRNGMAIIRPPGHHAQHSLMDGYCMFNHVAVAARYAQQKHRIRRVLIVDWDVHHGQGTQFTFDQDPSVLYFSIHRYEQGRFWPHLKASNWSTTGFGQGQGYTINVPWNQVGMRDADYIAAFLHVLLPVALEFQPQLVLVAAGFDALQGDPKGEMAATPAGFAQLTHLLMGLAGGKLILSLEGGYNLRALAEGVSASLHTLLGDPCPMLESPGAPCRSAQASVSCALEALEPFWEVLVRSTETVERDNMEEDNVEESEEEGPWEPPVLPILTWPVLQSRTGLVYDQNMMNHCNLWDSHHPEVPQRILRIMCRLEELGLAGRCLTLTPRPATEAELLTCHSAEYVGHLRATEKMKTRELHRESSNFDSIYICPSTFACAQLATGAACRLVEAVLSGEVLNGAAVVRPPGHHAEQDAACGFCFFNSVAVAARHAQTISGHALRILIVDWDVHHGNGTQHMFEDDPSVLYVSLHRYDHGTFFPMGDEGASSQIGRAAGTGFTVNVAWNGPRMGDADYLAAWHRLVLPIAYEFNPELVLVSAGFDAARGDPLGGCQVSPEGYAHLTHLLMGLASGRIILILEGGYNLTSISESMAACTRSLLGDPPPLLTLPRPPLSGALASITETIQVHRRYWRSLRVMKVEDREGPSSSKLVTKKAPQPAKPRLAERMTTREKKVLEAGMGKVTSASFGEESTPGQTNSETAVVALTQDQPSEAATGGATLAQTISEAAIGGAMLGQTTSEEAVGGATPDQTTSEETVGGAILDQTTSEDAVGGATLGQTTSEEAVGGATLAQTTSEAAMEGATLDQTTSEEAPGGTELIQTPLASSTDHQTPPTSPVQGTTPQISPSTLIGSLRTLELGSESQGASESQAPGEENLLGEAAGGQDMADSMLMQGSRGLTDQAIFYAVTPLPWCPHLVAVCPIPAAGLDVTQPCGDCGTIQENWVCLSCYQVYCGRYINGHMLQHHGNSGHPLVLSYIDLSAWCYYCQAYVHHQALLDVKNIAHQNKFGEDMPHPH
Description: (§1) The hybrids were assessed to determine their HDACi and VDR agonist activity as well as their antiproliferative properties relative to DK-406. HDACi activity was assessed in vitro using an acetylated lysine substrate that releases a fluorescent reporter upon HDACi deacetylation and subsequent trypsin digestion. Increasing sidechain length of pyrimidine hybrids enhanced the potency of HDAC6 inhibition, with several compounds inhibiting HDAC6 with a sub-micromolar IC50, similar to that of DK-406 (Fig. 4a). […] Next, we analyzed the effects of compounds on levels of H3K9 and H3K27 acetylation in 4TO7 cells, which are controlled by class I HDACs[29],[30]. […] We also tested the capacity of analogues to induce tubulin acetylation, controlled by class II enzyme HDAC6[32], in 4TO7 cells. Based on their relative efficacy in cytotoxicity assays (see below, Fig. 5c,d), we used 10^–5 M DK-406 and 10^–6 M AM-193 for these studies.
(§2) Figure 4 (a) Results of in vitro assays for inhibition of purified HDAC2 and HDAC6 by DK-406 and heterocyclic hybrids as measured by inhibition of deacetylation of a fluorometric substrate (see Methods for details). (b–d) Left: Western blotting analysis of histone 3 lysine 9 (H3K9; b), H3K27 (c), or acetylated tubulin (d), levels in 4TO7 cells treated with ligands for 6 h. Representative western-blots are shown from at least 3 biological replicates. Right: Graphs representing the average of the replicates, bars are mean ± SD. Each condition was compared to control. *: p ≤ 0.05, **: p ≤ 0.01, ***: p ≤ 0.001, ****: p ≤ 0.0001, ns: not significant. TEXT PRINTED IN THE PICTURE: (a) DK-406: HDAC6 IC50 (μM): 0.6; HDAC2 IC50 (μM): 0.5 | (a) AM-155: HDAC6 IC50 (μM): 2.8; HDAC2 IC50 (μM): 1.7 | (a) AM-171: HDAC6 IC50 (μM): 0.5; HDAC2 IC50 (μM): 9.6 | (a) AM-172: HDAC6 IC50 (μM): 0.3; HDAC2 IC50 (μM): 7.7 | (a) AM-191: HDAC6 IC50 (μM): 1.9; HDAC2 IC50 (μM): 8.1 | (a) AM-192: HDAC6 IC50 (μM): 0.5; HDAC2 IC50 (μM): 6.5 | (a) AM-193: HDAC6 IC50 (μM): 0.3; HDAC2 IC50 (μM): 7.2
(§3) Purified HDAC2 and HDAC6 were purchased from Cayman Chemical. Boc-Lys(Ac)-7-amino-4-methylcoumarin (BocLys(Ac)-AMC) was used as substrate for the HDAC assays. Substrate solution was prepared as follow: Boc(Lys-Ac)-AMC was dissolved in DMSO and diluted with HDAC buffer (15 mM tris–HCl [pH 8.1], 250 μM EDTA, 250 mM NaCl, 10% glycerol) to give 1 mM solutions containing 1.7% DMSO. Trypsin was used to stop the reaction, releasing free AMC. The trypsin solution was prepared as follow: trypsin was dissolved in HDAC buffer to give a concentration of 10 mg/mL. Release of AMC was monitored by measuring the fluorescence at 460 nm (lex = 390 nm) with a microplate reader (SpectraMax Gemini from Molecular Devices) at 37 °C. The AMC signals were recorded against a blank with buffer, substrate and trypsin but without the enzyme. All experiments were carried out at least in triplicate.
(§4) For HDAC inhibition assays, inhibitor diluted in 50 μL of HDAC buffer was mixed with 10 μL of diluted enzyme solution in HDAC buffer at room temperature. The HDAC reaction was started by adding 40 μL of substrate solution in HDAC buffer followed by 60 min of incubation with stirring at 37 °C. The reaction was stopped by adding 100 μL of trypsin solution. After a 30 min incubation with stirring at 37 °C, the release of AMC was monitored by measuring the fluorescence.

purified HDAC2 = molecular target: T2, purified HDAC2 (Homo sapiens, UniProt Q92769); assay: Fluorogenic HDAC inhibition assay, HDAC2; type: biochemical; settings: purified HDAC2, fluorometric substrate
T2 construct: purchased Cayman Chemical
Description: as §1, §2, §3, §4

[2] = test system: 60 human cell line panel of the National Cancer Institute; parameters: method as in PMID 26048026; settings: cell lines from a broad range of tumors, including TNBCs; cited from earlier work
[3] = Aqueous solubility after sonication; type: physicochemical; settings: water; after sonication for 30 min
Description: The synthesis of the B-ring series mirrored that of the A-ring series producing B-ring hybrids AM-191 (n = 1, 27a), AM-192 (n = 3, 27b), and AM-193 (n = 5, 27c) in 9 steps (Fig. 3).

[4] = 6 h, RNAseq Supplemental table 1
[5] = 6 h, RNAseq Supplemental table 2, 1 µM AM-193, 10 µM DK-406, 100 nM 1,25D and SAHA
[6] = 24 h, RNAseq Supplemental table 2, 1 µM AM-193, 10 µM DK-406, 100 nM 1,25D and SAHA
[7] = 48 h, RNAseq Supplemental table 1

T2 sequence (Q92769 whole entry): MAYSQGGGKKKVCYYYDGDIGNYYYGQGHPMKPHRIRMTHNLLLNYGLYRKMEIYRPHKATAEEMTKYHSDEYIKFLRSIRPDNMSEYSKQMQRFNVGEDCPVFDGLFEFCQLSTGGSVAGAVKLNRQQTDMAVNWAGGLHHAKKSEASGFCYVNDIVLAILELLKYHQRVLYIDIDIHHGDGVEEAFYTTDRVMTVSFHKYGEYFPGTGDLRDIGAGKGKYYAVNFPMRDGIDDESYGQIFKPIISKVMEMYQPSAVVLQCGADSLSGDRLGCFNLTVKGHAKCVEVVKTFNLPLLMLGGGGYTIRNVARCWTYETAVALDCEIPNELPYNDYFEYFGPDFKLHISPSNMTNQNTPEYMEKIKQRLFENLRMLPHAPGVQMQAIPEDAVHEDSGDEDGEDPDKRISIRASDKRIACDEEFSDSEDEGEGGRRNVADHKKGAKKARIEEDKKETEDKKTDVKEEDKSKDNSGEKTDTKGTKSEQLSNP

Compound: C=C1/C(=C\C=C2/CCC[C@]3(C)[C@@H]([C@H](C)CCCC(C)(C)O)CC[C@@H]23)C[C@@H](O)C[C@@H]1O [1,25D, 1α,25-Dihydroxyvitamin D3, reference compound]
Aaas 6h Log Fold (4TO7 cells; [4]): -1.012
Aacs 6h Log Fold (4TO7 cells; [4]): 1.070
Aaed1 6h Log Fold (4TO7 cells; [4]): -1.076
Aagab 6h Log Fold (4TO7 cells; [4]): 1.036
Aak1 6h Log Fold (4TO7 cells; [4]): -1.011
Aaas 6h Log Fold (4TO7 cells; [5]): -0.038
Aacs 6h Log Fold (4TO7 cells; [5]): 0.025
Aagab 6h Log Fold (4TO7 cells; [5]): 0.115
Aak1 6h Log Fold (4TO7 cells; [5]): 0.014
Aamdc 6h Log Fold (4TO7 cells; [5]): -0.075
Aaas 24h Log Fold (4TO7 cells; [6]): -0.054
Aacs 24h Log Fold (4TO7 cells; [6]): 0.127
Aagab 24h Log Fold (4TO7 cells; [6]): 0.138
Aak1 24h Log Fold (4TO7 cells; [6]): 0.00666
Aamdc 24h Log Fold (4TO7 cells; [6]): -0.360
Aaas 48h Log Fold (4TO7 cells; [7]): -1.436
Aacs 48h Log Fold (4TO7 cells; [7]): 1.516
Aaed1 48h Log Fold (4TO7 cells; [7]): -1.677
Aagab 48h Log Fold (4TO7 cells; [7]): 1.592
Aak1 48h Log Fold (4TO7 cells; [7]): 1.091
tumor growth and metastasis [1]: inactive alone or in combination

Compound: O=C(CCCCCCC(=O)Nc1ccccc1)NO [SAHA, Suberoylanilide hydroxamic acid, reference compound]
tumor growth and metastasis [1]: inactive alone or in combination

Now from value to compound, other results behind:

IC50 (purified HDAC6): 0.3 µM
IC50 (purified HDAC2): 7.7 µM
Compound: CCC(CC)(c1ccc(OCC(O)C(C)(C)C)c(C)c1)c1ccc(OCCCCCC(=O)NO)cn1 (stereo not shown) [AM-172]

IC50 (purified HDAC6): 1.9 µM
IC50 (purified HDAC2): 8.1 µM
Compound: CCC(CC)(c1ccc(OCC(=O)NO)cc1)c1ccc(OCC(O)C(C)(C)C)c(C)n1 (stereo not shown) [AM-191]

IC50 (purified HDAC6): 0.5 µM
IC50 (purified HDAC2): 6.5 µM
Compound: CCC(CC)(c1ccc(OCCCC(=O)NO)cc1)c1ccc(OCC(O)C(C)(C)C)c(C)n1 (stereo not shown) [AM-192]

solubility at 30 min [3]: 1.91 µg/mL (≈ 3.82 µM)
Compound: CCC(CC)(c1ccc(OCCCCCC(=O)NO)cc1)c1ccc(OCC(O)C(C)(C)C)c(C)c1 (stereo not shown) [DK-367]
antiproliferative activities [2]: displayed antiproliferative activities
tumor growth and metastasis [1]: reduced tumor growth and metastasis
